Assay results: the NIST ThermoML archive (doi:10.1021/acs.jced.8b00591)

Experiments:
[1] = xn = mol fraction of the nth substance listed; conditions: 101.3 kPa, Liquid, x2 = 0; for viscosity: Falling or rolling sphere viscometry; for mass density: Vibrating tube method
[2] = 101.3 kPa, Liquid; for viscosity: Falling or rolling sphere viscometry; for mass density: Vibrating tube method

CCOC(=O)OCC [diethyl carbonate] + CCn1cc[n+](C)c1.O=S(=O)([N-]S(=O)(=O)C(F)(F)F)C(F)(F)F
[1]
Conditions	mass density [kg/m3]	viscosity [mPa·s]
288.15 K	980.49	0.871
293.15 K	974.91	0.812
298.15 K	969.3	0.757
303.15 K	963.66	0.708
308.15 K	958	0.664
313.15 K	952.32	0.625
318.15 K	946.6	0.589
323.15 K	940.86	0.556
328.15 K	935.08	0.525

CCn1cc[n+](C)c1.O=S(=O)([N-]S(=O)(=O)C(F)(F)F)C(F)(F)F
[2]
Conditions	mass density [kg/m3]	viscosity [mPa·s]
288.15 K	1528.55	49.41
293.15 K	1523.47	40.36
298.15 K	1518.39	33.52
303.15 K	1513.34	28.35
308.15 K	1508.3	24.15
313.15 K	1503.28	20.76
318.15 K	1498.27	17.9
323.15 K	1493.28	15.93
328.15 K	1488.31	14.26

CCCC[n+]1ccn(C)c1.O=S(=O)([N-]S(=O)(=O)C(F)(F)F)C(F)(F)F
[2]
Conditions	mass density [kg/m3]	viscosity [mPa·s]
288.15 K	1445.66	78.02
293.15 K	1440.84	61.32
298.15 K	1436.01	48.93
303.15 K	1431.21	39.84
308.15 K	1426.43	32.91
313.15 K	1421.66	27.56
318.15 K	1416.91	23.33
323.15 K	1412.17	19.97
328.15 K	1407.45	17.41

COC(=O)OC [dimethyl carbonate] + CCCC[n+]1ccn(C)c1.O=S(=O)([N-]S(=O)(=O)C(F)(F)F)C(F)(F)F
[1]
Conditions	mass density [kg/m3]	viscosity [mPa·s]
288.15 K	1076.39	0.669
293.15 K	1069.86	0.626
298.15 K	1063.27	0.587
303.15 K	1056.65	0.552
308.15 K	1050	0.52
313.15 K	1043.29	0.498
318.15 K	1036.57	0.472
323.15 K	1029.83	0.45
328.15 K	1023.03	0.429

COC(=O)OC [dimethyl carbonate]
[2]
Conditions	mass density [kg/m3]	viscosity [mPa·s]
288.15 K	1076.39	0.669
293.15 K	1069.86	0.626
298.15 K	1063.27	0.587
303.15 K	1056.65	0.552
308.15 K	1050	0.52
313.15 K	1043.29	0.498
318.15 K	1036.57	0.472
323.15 K	1029.83	0.45
328.15 K	1023.03	0.429

COC(=O)OC [dimethyl carbonate] + CCn1cc[n+](C)c1.O=S(=O)([N-]S(=O)(=O)C(F)(F)F)C(F)(F)F
[1]
Conditions	mass density [kg/m3]	viscosity [mPa·s]
288.15 K	1076.39	0.669
293.15 K	1069.86	0.626
298.15 K	1063.27	0.587
303.15 K	1056.65	0.552
308.15 K	1050	0.52
313.15 K	1043.29	0.498
318.15 K	1036.57	0.472
323.15 K	1029.83	0.45
328.15 K	1023.03	0.429

CCOC(=O)OCC [diethyl carbonate]
[2]
Conditions	mass density [kg/m3]	viscosity [mPa·s]
288.15 K	980.49	0.871
293.15 K	974.91	0.812
298.15 K	969.3	0.757
303.15 K	963.66	0.708
308.15 K	958	0.664
313.15 K	952.32	0.625
318.15 K	946.6	0.589
323.15 K	940.86	0.556
328.15 K	935.08	0.525

CCOC(=O)OCC [diethyl carbonate] + CCCC[n+]1ccn(C)c1.O=S(=O)([N-]S(=O)(=O)C(F)(F)F)C(F)(F)F
[1]
Conditions	mass density [kg/m3]	viscosity [mPa·s]
288.15 K	980.49	0.871
293.15 K	974.91	0.812
298.15 K	969.3	0.757
303.15 K	963.66	0.708
308.15 K	958	0.664
313.15 K	952.32	0.625
318.15 K	946.6	0.589
323.15 K	940.86	0.556
328.15 K	935.08	0.525
